In assay [1] the test system is tested cancer cell lines (SW480, SW620, PC3, MDA-MB-231). Put plainly: MTT assay, mean over tested cancer cell lines. Format: cell-based. The following applies: Homo sapiens, mean of the four cancer cell lines. Here is the method:
They were added to 96-well plates with seeded normal and cancer cells (1 × 10^4 cells per well) and incubated for 72 h. MTT analysis was performed according to a previous study. […]
On the technique in general: Formazan colour is commonly taken as a measure of viable cells.

Assay [2] concerns IL-6 in HaCaT cells. Put plainly: Interleukin-6 ELISA. The following applies: compound at IC50, 72 h. The class given is cell-based, human. The protocol: The concentration of Interleukin-6 (IL-6) was measured in cell culture supernatant using Interleukin IL-6 High Sensitivity ELISA kit (Diaclon SAS, Besancon Cedex, France). Cells (1 × 10^5 cells/well) were seeded in 12-well plates with medium for 24 h. […] After this incubation, the supernatants were collected and 100 μL of supernatant samples, control solutions and blank were added to precoated ELISA plate with the preceding plotting of the standard curve. Then 50 μL of diluted biotinylated antihuman interleukin-6 antibody was added and incubated at room temperature for 3 h. Afterward, the plate was washed three times and 100 μL streptavidin-HRP solution was added to each well. After 30 min incubation, the plate was washed again three times and 100 μL of tetramethylbenzidine (TMB) solution was added to each well. The plate was incubated for 15 min in the dark. The reaction was stopped by adding 100 μL of H2SO4 solution. The absorbance was estimated using a spectrophotometer at 450 nm (Microplate Spectrophotometer Thermo Scientific Multiskan GO).
In general terms: An ELISA detects its analyte on a solid surface through an enzyme-linked reagent.

Assay [3] concerns SW620. Put plainly: MTT cytotoxicity assay. The class given is cell-based, human. The protocol: (§1) The human primary (SW480) and metastatic (SW620) colon cancer, metastatic prostate cancer (PC3), breast adenocarcinoma (MDA-MB-231) and human immortal keratinocyte (HaCaT) cell lines were recruited from the American Type Culture Collection (ATCC). The cells were cultured in the recommended medium according to protocols (RPMI 1640 for PC3, MEM for SW480 and SW620, as well as DMEM for MDA-MB-231 and HaCaT cells) with addition of 10% FBS, penicillin (100 U/mL), and streptomycin (100 μg/mL) and cultured in 37 °C/5% CO2 in a humidified incubator. Then, the cells were passaged at a confluence of 80–90% by a treatment with 0.25% trypsin (Gibco Life Technologies) and used for studies.
(§2) They were added to 96-well plates with seeded normal and cancer cells (1 × 10^4 cells per well) and incubated for 72 h. MTT analysis was performed according to a previous study.

Assay [4] concerns MDA-MB-231. Put plainly: MTT cytotoxicity assay. Format: cell-based, human. Here is the method: as §1, §2
Assay [5] has as its system SW480. Put plainly: MTT cytotoxicity assay. Format: cell-based, human. Here is the method: as §1, §2
For assay [6], the system named is PC3. Put plainly: MTT cytotoxicity assay. The class given is cell-based, human. The protocol:
as §1, §2

The mark [7] stands for this setting: SI = IC50 for normal cell line (HaCaT)/IC50 cancer cell line.

Molecules are shown by their SMILES. Where two headings read alike, the source gives them in different places.

One may read the IC50 as the concentration at which inhibition is half-maximal. Regarding `CC(C)[C@@H]1CC[C@@H](C)C[C@H]1OC(=O)C1C(=O)Oc2ccccc2C1P(=O)(c1ccccc1)c1ccccc1` (mixture of isomers) [Compound 4a, (1R,2S,5R)-2-Isopropyl-5-methylcyclohexyl-4-(diphenylphosphoryl)-2-oxochromane-3-carboxylate], the IC50 in assay [1] (Table S7, >100 entered as 100, read-out: mean anticancer IC50) came out at 11.6 µM; in assay [1] (read-out: average IC50 against tested cancer cell lines), 11.6 µM; in assay [3] (SW-620, MTT, 72 h, human metastatic colon cancer), 6.8 ± 0.55 µM; in assay [4] (MDA-MB-231, MTT, 72 h, human breast adenocarcinoma), 25.3 ± 4.59 µM; in assay [5] (SW480, MTT, 72 h, human primary colon cancer) it was 4.6 ± 1.01 µM; in assay [6] (PC-3, MTT, 72 h, human metastatic prostate cancer), 9.8 ± 2.02 µM. The same compound gave an IL-6 concentration in assay [2] (ELISA) of 7.5 ± 1.13 pg/mL. Further, the “reduction of IL-6 concentration” value in assay [2] (vs control) was 26.5%. The “SI SW620” value in assay [3] (setting [7]) worked out at 2.21. Besides, the “SI MDA-MB-231” value in assay [4] (setting [7]) is reported as 0.60. In addition, the “SI SW480” value in assay [5] (setting [7]) is 3.28. In assay [6] (setting [7]), the “SI PC3” value is 1.53.
